# Test system: Salmonella enteritidis KTE-61 strain
# Experiment: Inhibition test of salmonella/yeast agglutination
# Format: cell-based
# Method: Inhibition tests of salmonella agglutination were carried out on various saccharides as follows. […] Preliminary test was carried out for observing by stereoscopic microscope (OLYMPUS Co., Ltd) that agglutination occurs in this liquid mixture.
# Next, in a similar manner to the aforementioned preliminary test, with the use of aqueous solution of saccharide where the aforementioned taken β-1,4-mannobiose and a mannose reagent (D-Mannose; Wako Pure Chemical Industries, Ltd.) were used instead of distilled water, the minimum concentration for inhibiting agglutination of liquid mixture (the minimum concentration for inhibiting agglutination) was obtained by varying the concentration, respectively. The actual minimum concentration for inhibiting the agglutination in liquid mixture and the relative concentration (ratio of concentration) when the minimum concentration for inhibiting agglutination of mannose is set 1 are shown in table 1.
compound,measurement,setting,value
"OC[C@H]1O[C@@H](O[C@H]2[C@H](O)[C@H](O)C(O)O[C@@H]2CO)[C@@H](O)[C@@H](O)[C@@H]1O (stereo partly drawn) [Mannobiose, β-1,4-mannobiose]","minimum concentration for inhibiting agglutination, Actual Concentration","Salmonella enteritidis KTE-61 with yeast Candida albicans KI-102001, concentration in liquid mixture",1290 µg/mL
same,Relative Concentration (Based on Mannose),"minimum concentration for inhibiting agglutination, mannose set to 1",2.173
